Laboratory results published in PMC5478271, “Chemical structure-guided design of dynapyrazoles, cell-permeable dynein inhibitors with a unique mode of action” (eLife, 2017).

Target: T1, human cytoplasmic dynein 2 (GFP-dynein 2, amino acids 1091–4307) (Homo sapiens, UniProt Q8NCM8)
T1 construct: (AA 1091–4307, uniprot: Q8NCM8); protein A tag (followed by TEV-cleavable linker) (N, cleaved yes); made in house; host or cells: Sf9 insect cells (baculovirus)
Assay: Microtubule gliding (motility) assay with GFP-dynein 2
Format: biochemical
Details: 0.05 mg/mL casein; for Velocity of dynein-2-driven microtubule gliding: 20 µM compound, solvent control 128 ± 14 nm/s, mean ± S.D.; for Velocity of dynein-2-driven microtubule gliding / IC50: 1 mM MgATP, 2% DMSO; for IC50: read-out: IC50, inhibition of GFP-dynein-2-driven motility
Procedure: We purified an N-terminally GFP-tagged motor-domain construct of dynein 2 using an insect cell expression system ([Schmidt et al., 2015]). The GFP tag in this construct (GFP-dynein 2, amino acids 1091–4307) allowed the motor protein to be immobilized on passivated glass coverslips used in microtubule gliding assays. GFP-dynein 2 was obtained as a mono-disperse peak by gel filtration (Figure 2D and E). In the presence of ATP (1 mM), this protein moved microtubules with a velocity of 128 ± 14 nm/s (mean ± SD, Figure 2G and I).
Reaction setup: A coverslip-based motility assay was adapted from similar assays reported previously ([Firestone et al., 2012]; [Schmidt et al., 2015]). A flow chamber assembled on a pre-cleaned microscope coverslide (3–5 µL chamber volume) was hydrated with buffer A (25 mM PIPES, 30 mM KCl, 5 mM MgCl2, 1 mM EGTA, 0.01% Triton X-100, 1 mM DTT, 20 µM taxol, pH 7.0 with KOH). Anti-GFP antibody (0.4 mg/mL, affinity purified rabbit antibody) was flowed into the chamber and allowed to adhere non-specifically to the glass for 20 s. The surface was blocked using 0.5 mg/mL α-casein in buffer A. Excess protein was then washed away with buffer A. GFP-dynein motor domain was diluted in buffer A supplemented with 1 mM DTT and 0.1 mM ATP (2 mM DTT final; GFP-dynein 2 diluted to: 180 nM; GFP-dynein 1 diluted to: 60 nM), flowed into the chamber and allowed to bind for 20 s. Excess protein was washed away with buffer A. Reaction mix (25 mM PIPES, 90 mM KCl, 6 mM MgCl2, 1 mM EGTA, 0.01% Triton X-100, 3 mM DTT, 20 µM taxol, 1 mM ATP, 1x oxygen scavenging system components [4.5 mg/mL glucose, 35 µg/mL catalase, 200 µg/mL glucose oxidase], 2% final DMSO [v/v] with compounds at appropriate concentrations, 0.05 mg/mL α-casein, microtubules [rhodamine labeled, purified from bovine brain, GMP-CPP and Taxol-stabilized], pH 7.0 with KOH) was flowed into the chamber using ~4 chamber volumes. For experiments shown in Figure 4—figure supplement 1, α-casein concentration in reaction mix was 0.5 mg/mL and all other parameters were held constant.
For reversibility experiments, motility in the presence of 5 µM 8 was observed as above, and upon completion of imaging, the chamber, fresh buffer A supplemented with 1 mM ATP was flowed into the chamber and incubated for 1 min; this wash and incubation cycle was repeated twice. Reaction mix containing DMSO (no compound) was flowed into the chamber using ~4 chamber volumes. The chamber was sealed with valap and returned to the microscope.
Microscopy conditions: Following addition of reaction mix, microtubules were allowed to bind for 5 min before imaging. For reversibility experiments, microtubules were allowed to bind for 10 min before imaging. Videos were taken on a Zeiss Axiovert 200M wide-field microscope equipped with a Zeiss 100x/1.45 NA α-Plan-Fluar objective. Data were captured with an EM-CCD camera (iXon DU-897, Andor Technology) with a 0.2 s exposure time and frame rate of 0.25–0.5/second. Four 10–20 s videos were captured per experimental condition. Velocities were measured using the kymograph tool in FIJI ([Schindelin et al., 2012]). Data analysis is discussed below under ‘General data analysis procedures.’
Microtubule velocity measurements: the tracks of microtubules were traced and converted to kymographs (x axis-displacement, y axis-time) using the kymograph function of FIJI (RRID: SCR_002285). The angle formed between an edge of a microtubule and the horizontal was measured. This angle, θ, was converted into velocity using the following relationship: velocity = 1/|tangent(θ)| * (unit pixel distance)/(time interval between frames).
The calibrated pixel distance was 0.152 µm and the time interval between frames was either 2 or 4 s. The velocities of at least seven microtubules were measured per field of view, if sufficient tracks could be found. In cases where fewer than seven microtubules were found in a field of view, velocities of all microtubules on the coverslip were measured. […]

T1 sequence (Q8NCM8 1091-4307): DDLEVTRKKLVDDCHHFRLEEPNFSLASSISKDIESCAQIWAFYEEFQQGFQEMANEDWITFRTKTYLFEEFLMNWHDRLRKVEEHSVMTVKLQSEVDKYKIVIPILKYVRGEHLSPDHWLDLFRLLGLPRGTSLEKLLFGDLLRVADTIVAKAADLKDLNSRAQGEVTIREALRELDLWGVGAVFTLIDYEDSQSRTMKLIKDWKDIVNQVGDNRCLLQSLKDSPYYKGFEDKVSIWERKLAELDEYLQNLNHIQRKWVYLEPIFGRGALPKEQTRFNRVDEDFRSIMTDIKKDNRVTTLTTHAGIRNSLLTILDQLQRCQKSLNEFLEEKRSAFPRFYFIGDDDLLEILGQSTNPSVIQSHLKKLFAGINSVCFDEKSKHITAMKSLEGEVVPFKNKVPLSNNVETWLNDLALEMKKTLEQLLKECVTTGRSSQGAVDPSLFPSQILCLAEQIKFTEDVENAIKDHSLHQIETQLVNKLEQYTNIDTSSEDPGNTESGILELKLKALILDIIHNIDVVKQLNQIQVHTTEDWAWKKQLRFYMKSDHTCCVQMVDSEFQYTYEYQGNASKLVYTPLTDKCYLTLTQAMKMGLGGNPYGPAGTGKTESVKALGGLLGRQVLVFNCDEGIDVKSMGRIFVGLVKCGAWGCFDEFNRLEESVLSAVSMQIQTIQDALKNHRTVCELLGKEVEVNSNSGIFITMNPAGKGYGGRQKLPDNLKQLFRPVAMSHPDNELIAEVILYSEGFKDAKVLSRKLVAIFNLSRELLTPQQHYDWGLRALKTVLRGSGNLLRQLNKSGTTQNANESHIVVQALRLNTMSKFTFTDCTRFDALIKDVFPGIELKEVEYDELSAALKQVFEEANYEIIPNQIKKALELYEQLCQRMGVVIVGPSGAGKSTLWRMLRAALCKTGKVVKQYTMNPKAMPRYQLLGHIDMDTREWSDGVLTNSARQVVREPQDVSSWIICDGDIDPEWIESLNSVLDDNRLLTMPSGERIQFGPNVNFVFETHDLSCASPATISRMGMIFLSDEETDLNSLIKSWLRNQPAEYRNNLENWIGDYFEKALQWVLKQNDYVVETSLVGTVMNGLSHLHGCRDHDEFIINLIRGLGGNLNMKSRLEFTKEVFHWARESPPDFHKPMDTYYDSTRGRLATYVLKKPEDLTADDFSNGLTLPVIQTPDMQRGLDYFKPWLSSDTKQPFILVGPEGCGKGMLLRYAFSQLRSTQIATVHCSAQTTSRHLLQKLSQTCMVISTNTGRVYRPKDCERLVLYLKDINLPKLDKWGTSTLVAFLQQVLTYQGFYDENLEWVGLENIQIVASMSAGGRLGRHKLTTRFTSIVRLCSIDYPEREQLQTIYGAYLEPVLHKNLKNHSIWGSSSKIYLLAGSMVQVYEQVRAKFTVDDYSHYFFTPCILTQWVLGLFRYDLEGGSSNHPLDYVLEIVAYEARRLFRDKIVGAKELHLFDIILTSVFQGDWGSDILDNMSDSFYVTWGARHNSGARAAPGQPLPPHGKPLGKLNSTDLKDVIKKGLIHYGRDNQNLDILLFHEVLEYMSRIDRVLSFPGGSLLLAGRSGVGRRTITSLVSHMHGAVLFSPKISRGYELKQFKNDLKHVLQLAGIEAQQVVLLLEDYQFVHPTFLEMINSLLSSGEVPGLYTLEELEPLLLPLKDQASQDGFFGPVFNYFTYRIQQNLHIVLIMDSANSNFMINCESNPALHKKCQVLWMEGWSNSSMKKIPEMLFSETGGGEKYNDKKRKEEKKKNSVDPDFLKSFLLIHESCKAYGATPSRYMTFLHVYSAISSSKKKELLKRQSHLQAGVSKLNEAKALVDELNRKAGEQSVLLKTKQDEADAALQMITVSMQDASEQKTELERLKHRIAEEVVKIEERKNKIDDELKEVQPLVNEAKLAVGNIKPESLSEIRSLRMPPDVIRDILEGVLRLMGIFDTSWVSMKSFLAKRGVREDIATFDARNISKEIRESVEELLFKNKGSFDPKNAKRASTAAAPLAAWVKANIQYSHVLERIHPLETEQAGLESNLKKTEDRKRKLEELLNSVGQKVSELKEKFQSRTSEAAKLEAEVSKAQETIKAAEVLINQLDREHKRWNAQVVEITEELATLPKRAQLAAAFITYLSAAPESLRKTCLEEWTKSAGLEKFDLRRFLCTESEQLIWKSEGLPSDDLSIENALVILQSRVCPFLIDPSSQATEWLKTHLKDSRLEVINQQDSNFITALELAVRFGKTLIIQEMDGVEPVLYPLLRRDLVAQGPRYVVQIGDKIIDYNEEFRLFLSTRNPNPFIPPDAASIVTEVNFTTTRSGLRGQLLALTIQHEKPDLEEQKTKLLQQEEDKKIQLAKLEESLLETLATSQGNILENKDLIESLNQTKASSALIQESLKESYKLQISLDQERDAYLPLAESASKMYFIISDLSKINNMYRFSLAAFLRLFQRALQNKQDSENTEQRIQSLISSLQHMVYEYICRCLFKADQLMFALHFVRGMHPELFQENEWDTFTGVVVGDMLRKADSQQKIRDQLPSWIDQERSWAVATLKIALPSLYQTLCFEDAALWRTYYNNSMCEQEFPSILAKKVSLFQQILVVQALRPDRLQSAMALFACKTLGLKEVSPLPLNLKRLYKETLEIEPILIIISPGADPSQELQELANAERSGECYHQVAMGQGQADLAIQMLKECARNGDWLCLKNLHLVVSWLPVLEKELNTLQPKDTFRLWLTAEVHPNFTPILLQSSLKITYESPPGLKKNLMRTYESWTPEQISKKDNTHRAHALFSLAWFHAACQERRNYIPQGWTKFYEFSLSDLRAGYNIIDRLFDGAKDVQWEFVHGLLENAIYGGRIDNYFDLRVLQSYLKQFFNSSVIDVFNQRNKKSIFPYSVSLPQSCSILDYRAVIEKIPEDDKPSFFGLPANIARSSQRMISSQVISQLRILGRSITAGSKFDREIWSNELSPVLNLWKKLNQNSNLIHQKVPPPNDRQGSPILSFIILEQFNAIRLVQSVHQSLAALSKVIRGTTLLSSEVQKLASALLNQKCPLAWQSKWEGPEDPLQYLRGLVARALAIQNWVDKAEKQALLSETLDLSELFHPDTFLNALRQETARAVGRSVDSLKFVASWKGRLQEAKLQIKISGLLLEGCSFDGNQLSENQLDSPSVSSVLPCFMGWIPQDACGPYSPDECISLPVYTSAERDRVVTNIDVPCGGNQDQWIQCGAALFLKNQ

Structure (SMILES) | Reversibility of inhibition of dynein-2-dependent motility after washout (5 µM 8, then washout, 1 mM ATP) | Velocity of dynein-2-driven microtubule gliding | IC50
N#Cc1c(C2(c3ccc(Cl)cc3)CC2)nn2c1[nH]c(=O)c1cc(I)ccc12 [Compound 8, 2-[1-(4-chlorophenyl)cyclopropyl]-7-iodo-5-oxo-4H-pyrazolo[1,5-a]quinazoline-3-carbonitrile] | reversed following washout | 6 ± 2 nm/s | 2.6 ± 1.3 µM
N#C/C(C(=O)c1ccc(Cl)cc1Cl)=C1\NC(=O)c2ccc(Cl)cc2N1 [ciliobrevin D, reference compound] |  | 83 ± 10 nm/s | 20 µM
